What is called MIC is the smallest concentration in the dilution series that meets the test's criterion for growth inhibition.

The text below walks through data of article PMC9221290, “Alkaloids of Dicranostigma franchetianum (Papaveraceae) and Berberine Derivatives as a New Class of Antimycobacterial Agents” (Biomolecules, 2022).

The structures appear in SMILES notation. Like-named read-outs stand apart in the source and are kept apart here.

One assay relates to M. intracellulare. The note with it: cited from earlier work.
In assay [1] the test system is Mycobacterium kansasii DSM 44162 (ATCC 12478). Description: Antimycobacterial microdilution broth assay (resazurin), M. kansasii. The class given is cell-based. The conditions noted are these: Mycobacterium kansasii, 96 h, read-out: MIC M. kansasii.
The test system of assay [2] is Mycobacterium avium DSM 44156 (ATCC 25291). The assay can be described thus: Antimycobacterial microdilution broth assay (resazurin), M. avium. It counts as cell-based. The note with it: Mycobacterium avium, 96 h, read-out: MIC M. avium, microdilution broth, resazurin, 96 h. (In general: Broth dilution looks for growth in wells or tubes with falling amounts of substance.)

The test system of assay [3] is Mycolicibacterium smegmatis. On the set-up: method as in PMID 9784149. The note with it: cited from earlier work.
Another assay relates to pulmonary tuberculosis. Also on record: method as in PMID 34745081. The note with it: mice with pulmonary tuberculosis; cited from earlier work.
In assay [4] the test system is Mycolicibacterium aurum DSM 43999 (ATCC 23366). Description: Antimycobacterial microdilution broth assay (resazurin), M. aurum. It counts as cell-based. The conditions noted are these: Mycolicibacterium aurum, 72 h, read-out: MIC M. aurum.
Assay [5] concerns Mycolicibacterium smegmatis DSM 43465 (ATCC 607). The assay can be described thus: Antimycobacterial microdilution broth assay (resazurin), M. smegmatis. The class given is cell-based. The conditions noted are these: Mycolicibacterium smegmatis; microdilution broth, resazurin, 48 h; read-out: MIC M. smegmatis.
The subject of assay [6] is Mtb H37Ra ITM-M006710 (ATCC 9431). Description: Antimycobacterial microdilution broth assay (resazurin), Mtb H37Ra. It counts as cell-based, Mycobacterium tuberculosis. The note with it: Mycobacterium tuberculosis, read-out: MIC Mtb H37Ra.

In the case of `COc1ccc2cc3[n+](cc2c1OC)CCc1cc2c(cc1-3)OCO2` [compound 16, berberine], the “MIC against M. intracellulare” value is reported as 1.56 µg/mL in the assay with M. intracellulare and 200 µg/mL in the assay with M. intracellulare (ref Gentry et al. 1998). For the same compound, the MIC in assay [1] is 31.2 µg/mL; in assay [2], 31.2 µg/mL; in assay [4], 62.5 µg/mL; in assay [5], 62.5 µg/mL; in assay [6] (120 h, microdilution broth, resazurin, 120 h), 125 µg/mL; in assay [6] (calculated from MIC (µg/mL) and MW), 336 µM. Also, the “MIC against Mycolicibacterium smegmatis” value in assay [3] is given as 25 µg/mL. Moreover, the “effects on bacterial burden” value with pulmonary tuberculosis is on record as “no additive or synergistic effects”. The lung pathology result in the assay with pulmonary tuberculosis was “decreased lung pathology”.
